Data taken from PMC6334293 (Journal of medicinal chemistry, 2018).

Key:
[1] = system: BCL6-dependent and BCL6-independent lymphoma cells; assay: Differential cell killing assays, panel statements; type: cell-based, human
Ly1B50 = assay: Growth inhibition; type: cell-based; conditions: Homo sapiens, 48 h, read-out: GI50 BCL6 independent cell Ly1B50
BCL6^BTB [2] = molecular target: T1, BCL6^BTB (Homo sapiens, UniProt P41182, C67R/C84N/E99V)
OCI-Ly7 = assay: Growth inhibition; type: cell-based, human
BCL6^BTB LG = conditions: read-out: KD (MST); microscale thermophoresis; cited from earlier work
SUDHL6 = assay: Growth inhibition; type: cell-based, human
MIZ1 = molecular target: T2, MIZ1 (Homo sapiens, UniProt Q13105); assay: Protein-observed NMR binding to MIZ1 BTB; conditions: Figure S8
T2 sequence (Q13105 1-115): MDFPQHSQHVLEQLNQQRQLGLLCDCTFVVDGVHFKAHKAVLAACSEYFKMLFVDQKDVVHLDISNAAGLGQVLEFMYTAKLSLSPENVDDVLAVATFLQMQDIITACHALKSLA

LRF = LRF (Homo sapiens, UniProt O95365); conditions: Figure S8
BCL6^BTB [3] = molecular target: T1, BCL6^BTB; conditions: NMR KD
KAISO = KAISO (Homo sapiens, UniProt Q86T24); conditions: Figure S8
KAISO, sequence (Q86T24 1-122, species assumed): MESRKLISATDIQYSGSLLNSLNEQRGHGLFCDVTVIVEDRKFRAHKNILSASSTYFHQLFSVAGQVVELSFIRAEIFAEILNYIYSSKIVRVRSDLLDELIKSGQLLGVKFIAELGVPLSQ

LRF, sequence (O95365 1-130): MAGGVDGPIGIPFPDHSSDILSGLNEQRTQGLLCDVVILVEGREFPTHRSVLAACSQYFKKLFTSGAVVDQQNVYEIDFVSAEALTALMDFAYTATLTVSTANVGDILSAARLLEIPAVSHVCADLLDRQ

In the case of `CC(C)NC(=O)Cn1cc(CN2CCN(C)CC2)c2ccc(NC(=S)NCCc3c[nH]c4ccccc34)cc21` [Compound 15a, 2-(6-(3-(2-(1H-indol-3-yl)ethyl)thioureido)-3-((4-methylpiperazin-1-yl)methyl)-1H-indol-1-yl)-N-isopropylacetamide], the “effects in the cell killing assays” value [1] is reported as “no effects” and the GI50 (Ly1B50) is reported as > 500 µM.

For `CN1CCN(Cc2cn(CC(=O)N3CCCCC3)c3cc(NC(=S)NCCc4c[nH]c5ccccc45)ccc23)CC1` [Compound 15e, 1-(2-(1H-Indol-3-yl)ethyl)-3-(3-((4-methylpiperazin-1-yl)methyl)-1-(2-oxo-2-(piperidin-1-yl)ethyl)-1H-indol-6-yl)thiourea], the GI50 ([1]; Homo sapiens, read-out: GI50 for BCL6-dependent lymphoma cells) was 33 to 103 µM, the “effect on all tested BCL6-independent lymphoma cells” value ([1]; at the concentration of 500 μM) was “no effect” and the GI50 (Ly1B50) was > 500 µM.

For `CC(C)NC(=O)Cn1ccc2ccc(NC(=S)NCCc3c[nH]c4ccccc34)cc21` [Compound 7b, 2-(6-(3-(2-(1H-Indol-3-yl)ethyl)thioureido)-1H-indol-1-yl)-N-isopropylacetamide], the “improvement of 6PA value compared to compound 7a” value (BCL6^BTB [2]) was 3.7 fold.

With `CN1CCN(Cc2cn(CC(=O)NCC(=O)O)c3cc(NC(=S)NCCc4c[nH]c5ccccc45)ccc23)CC1` [Compound 15c, (2-(6-(3-(2-(1H-Indol-3-yl)ethyl)thioureido)-3-((4-methylpiperazin-1-yl)methyl)-1H-indol-1-yl)acetyl)glycine] the “effects in the cell killing assays” value [1] was “no effects” and the GI50 (Ly1B50) was > 500 µM.

For `O=C(O)CNC(=O)Cn1ccc2ccc(NC(=S)NCCc3c[nH]c4ccccc34)cc21` [Compound 7i, (2-(6-(3-(2-(1H-Indol-3-yl)ethyl)thioureido)-1H-indol-1-yl)acetyl)glycine], the “effect on all seven lymphoma cell lines” value ([1]; at the concentration of 500 μM) was “no effect” and the GI50 (Ly1B50) was > 500 µM.

In the case of `CCN(CC)C(=O)Cn1cc(CN2CCN(C)CC2)c2ccc(NC(=S)NCCc3c[nH]c4ccccc34)cc21` [Compound 15d, 2-(6-(3-(2-(1H-Indol-3-yl)ethyl)thioureido)-3-((4-methylpiperazin-1-yl)methyl)-1H-indol-1-yl)-N,N-diethylacetamide], the 6PA (BCL6^BTB [2]) is reported as 390 Hz.

In the case of `CC1CN(C(=O)Cn2cc(CN3CCN(C)CC3)c3ccc(NC(=S)NCCc4c[nH]c5ccccc45)cc32)CCO1` (stereo not drawn) [Compound 15g, 1-(2-(1H-Indol-3-yl)ethyl)-3-(1-(2-(2-methylmorpholino)-2-oxoethyl)-3-((4-methylpiperazin-1-yl)methyl)-1H-indol-6-yl)thiourea], the “cellular activity, OCI-Ly7 cells” value (OCI-Ly7) is reported as “only showed activity” and the GI50 (Ly1B50) is reported as > 500 µM.

In the case of `O=C(O)CC(C(=O)O)N1C(=O)/C(=C2/C(=O)Nc3ccc(Br)cc32)SC1=S` (stereo not drawn) [79–6], the Kd (BCL6^BTB LG) is given as 129 µM.

For `COC(=O)Cn1cc(CN2CCN(C)CC2)c2ccc(NC(=S)NCCc3c[nH]c4ccccc34)cc21` [Compound 13, Methyl 2-(6-(3-(2-(1H-indol-3-yl)ethyl)thioureido)-3-((4-methylpiperazin-1-yl)methyl)-1H-indol-1-yl)acetate], the 6PA (BCL6^BTB [2]) was 363 Hz, the “cellular activity, SUDHL6 cells” value (SUDHL6) was “weak cellular activity” and the GI50 (Ly1B50) was > 500 µM.

For `CN1CCN(Cc2cn(CC(=O)N3CCOCC3)c3cc(NC(=S)NCCc4c[nH]c5ccccc45)ccc23)CC1` [Compound 15f, 1-(2-(1H-Indol-3-yl)ethyl)-3-(3-((4-methylpiperazin-1-yl)methyl)-1-(2-morpholino-2-oxoethyl)-1H-indol-6-yl)thiourea], the “binding to MIZ1 BTB domain” value (MIZ1) was “no interactions”, the “binding to LRF BTB domain” value (LRF) was “no interactions” and the “improvement of affinity over 15a” value (BCL6^BTB [3]) was 6 fold. For the same molecule, the “activity to other tested BCL6-dependent lymphoma cells” value ([1]; other than OCI-Ly7) was “no obvious activity”, the “cellular activity, OCI-Ly7 cells” value (OCI-Ly7) was “weak potency” and the GI50 (Ly1B50) was > 500 µM. The “binding to KAISO BTB domain” value (KAISO) was “no interactions”.
